Measurements as given in article PMC12126180 (Journal of chemical information and modeling, 2021).

Legend:
COVID-19 = conditions: 1063 patients, cited from earlier work
SARS-CoV-2 WA1 strain = assay type: cell-based; conditions: Vero E6 cells

Structure (SMILES)	mortality rate (COVID-19; placebo 11.9%) [%]	recovery time shortened with respect to the placebo (COVID-19)	activity against SARS-CoV-2 replication in words (SARS-CoV-2 WA1 strain)
CCC(CC)COC(=O)[C@H](C)N[P@](=O)(OC[C@H]1O[C@@](C#N)(c2ccc3c(N)ncnn23)[C@H](O)[C@@H]1O)Oc1ccccc1 [Remdesivir]	7.1	four	
CC(C)(O)c1ccccc1CC[C@@H](SCC1(CC(=O)O)CC1)c1cccc(/C=C/c2ccc3ccc(Cl)cc3n2)c1 [Montelukast]			weakly active
